Results from US20190147975A1, “SF3B1 SUPPRESSION AS A THERAPY FOR TUMORS HARBORING SF3B1 COPY LOSS” (DANA-FARBER CANCER INSTITUTE, INC., priority 2016, published 2019).

Assays:
Hs578T, Cal51 cells = experiment: Drug sensitivity curves for splicing inhibitors in cells without and with SF3B1 suppression; type: cell-based, human
Source text: FIG. 26A is a series of graphs showing drug sensitivity curves for indicated splicing inhibitors (“NSC-95397”, “pladienolide B”, “spliceostatin A”) in cells (“Hs578T”, “Cal51”) without and with SF3B1 suppression.

SF3B1 = experiment: Immunoblot of SF3B1 expression in Cal51 cells treated with DUB inhibitors; type: cell-based, human; conditions: treated for 4 or 24 hours
Method: FIG. 37 is an immunoblot showing SF3B1 expression in Cal51 cells treated with de-ubiquitinase (DUB) inhibitors (“PR-619”, “b-AP15”, “SJB3-019A”) for 4 or 24 hours. For all figures, *p<0.05, **p<0.01, ***p<0.001 unless otherwise indicated, and error bars represent +/−standard deviation.
In addition to SF3B1 RNA interference and SF3B inhibition, SF3B1 suppression can be exerted by deubiquitinase (DUB) inhibition. […] Therefore, DUB inhibitors may be capable of killing SF3B1^loss cells specifically.
For denaturing protein immunoblots, cells were washed in ice cold PBS and lysed in 1× RIPA buffer (10 mM Tris-Cl Ph 8.0, 1 mM EDTA, 1% Triton X-100, 0.1% SDS and 140 mM NaCl) supplemented with lx protease and phosphatase inhibitor cocktail (PI-290, Boston Bioproducts). Lysates were sonicated in a bioruptor (Diagenode) for 5 minutes (medium intensity) and cleared by centrifugation at 15000×g for 15 min at 4 C. Proteins were electrophoresed on polyacrylamide gradient gels (Life Technologies) and detected by chemiluminescence. For native western blotting, cells were washed in ice cold PBS and lysed in 1× sonication buffer (10% Glycerol, 25 mM HEPES pH 7.4, 10 mM MgCl2) supplemented with protease and phosphatase inhibitors. Coomassie blue native PAGE western blots were run according the manufacturer's instructions (Life Technologies).

[1] = tested on: CRISPR^frameshift-loss xenografts; experiment: Xenograft growth with doxycycline-induced SF3B1 suppression; type: in vivo, nude mice; conditions: doxycycline-induced shRNA, p=0.001
Source text: (§1) To test the effects of SF3B1 suppression in vivo, xenografts were generated using luciferase-labeled cell lines from the CRISPR^frameshift-loss and CRISPR^neutral#1 cells containing TR-shSF3B1#3. Animals were placed on doxycycline upon detection of palpable tumors. CRISPR^frameshift-loss and CRISPR^neutral#1 cells generated tumors of similar volume in the absence of doxycycline (FIG. 34; p=0.7, repeated measures ANOVA).
All animal husbandry was done with the approval of the Dana-Farber Cancer Institute IACUC. 1×10^6 CRISPR^neutral#1 or CRISPR^frameshift-loss cells expressing TR-shSF3B1 #3 were subcutaneously injected into opposing flanks of nude mice (Foxn1 nu/nu, Harlan). Animals were randomized to control group or doxycycline treatment after detection of a palpable tumor on either flank. Mice in the doxycycline treatment arm were continuously fed a doxycycline diet (2,000 ppm). Mice were sacrificed at the end of the experiment, or when endpoints were reached based on failure to thrive according to IACUC recommendation. […]
A custom image analysis pipeline was used to systematically quantify Ki67+ cells from tumor xenografts using CellProfilier. A minimum of 3 tumors per group, totaling at least 2,440 nuclei per tumor, was used to quantify the ratio of Ki67+ cells. At least 5 individual and random microscopic images from each tumor were analyzed.

[2] = tested on: SF3B1^neutral Cal51 xenografts; experiment: Growth of established xenograft tumors without or with doxycycline; type: in vivo; conditions: with doxycycline vs without
Source text: FIG. 36A is a graph showing growth of established tumors for Cal51 xenografts without doxycycline (“−Dox”, n=13) or with doxycycline (“+Dox”, n=12) using TR-shSF3B1 #3.
as §1

[3] = tested on: SF3B1^loss HCC1954 xenografts; experiment: as above; type: in vivo; conditions: with doxycycline vs without
Source text: FIG. 36B is a graph showing growth of established tumors for HCC1954 xenografts without doxycycline (“−Dox”, n=13) or with doxycycline (“+Dox”, n=12) using TR-shSF3B1 #3. ***p≤0.001.
as §1

## O=C1C(SCCO)=C(SCCO)C(=O)c2ccccc21 [NSC95397]
Hs578T, Cal51 cells; cells with SF3B1 copy-loss or suppression
  increased effects on cells with SF3B1 copy-loss or suppression: failed to exhibit increased effects

## N#CSc1cc(SC#N)c(N)nc1N [PR-619]
SF3B1
  SF3B1 expression: significant decrease

## O=C1c2ccccc2C(=O)c2oc(-c3cccnc3)nc21 [SJB3-019A]
SF3B1
  SF3B1 expression: significant decrease

## CO[C@]1(C)C[C@@]2(CO2)[C@H](O)[C@@H](/C=C/C(C)=C/C[C@@H]2O[C@H](C)[C@H](NC(=O)/C=C\[C@H](C)OC(C)=O)C[C@@H]2C)O1 [Spliceostatin A]
Hs578T, Cal51 cells; Hs578T breast cancer cells, when suppression of SF3B1 expression is induced
  cell death: increased cell death

## C=CC(=O)N1C/C(=C\c2ccc([N+](=O)[O-])cc2)C(=O)/C(=C/c2ccc([N+](=O)[O-])cc2)C1 [b-AP15]
SF3B1
  SF3B1 expression: significant decrease

B1: TR-shSF3B1#3: doxycycline-inducible shRNA targeting SF3B1 in pLKO-Tet-puro, SEQ ID NO: 12/13 (nucleic acid)
sense: CCGGCAACTCCTTATGGTATCGAATCTCGAGATTCGATACCATAAGGAGTTGTTTTTG
antisense: AATTCAAAAACAACTCCTTATGGTATCGAATCTCGAGATTCGATACCATAAGGAGTTG
[1]; Ki67 immunohistochemistry
  number of proliferative Ki67+ cells: reduced
[1]; luminescent quantification
  growth of tumor: reduced the growth of tumor
[2]
  tumor growth: not in SF3B1^neutral Cal51 xenografts
[3]
  tumor growth: reduced tumor growth was observed
